This passage reports IC50 and remaining activity results from paper PMC6244214, “Pd-Catalyzed microwave-assisted synthesis of phosphonated 13α-estrones as potential OATP2B1, 17β-HSD1 and/or STS inhibitors” (Beilstein Journal of Organic Chemistry, 2018).

The target of data set [1] is T1, human OATP2B1 (Homo sapiens, UniProt O94956).
T1 construct: expressed in transfected cells; host or cells: A431 cells
T1 sequence (O94956 1-709): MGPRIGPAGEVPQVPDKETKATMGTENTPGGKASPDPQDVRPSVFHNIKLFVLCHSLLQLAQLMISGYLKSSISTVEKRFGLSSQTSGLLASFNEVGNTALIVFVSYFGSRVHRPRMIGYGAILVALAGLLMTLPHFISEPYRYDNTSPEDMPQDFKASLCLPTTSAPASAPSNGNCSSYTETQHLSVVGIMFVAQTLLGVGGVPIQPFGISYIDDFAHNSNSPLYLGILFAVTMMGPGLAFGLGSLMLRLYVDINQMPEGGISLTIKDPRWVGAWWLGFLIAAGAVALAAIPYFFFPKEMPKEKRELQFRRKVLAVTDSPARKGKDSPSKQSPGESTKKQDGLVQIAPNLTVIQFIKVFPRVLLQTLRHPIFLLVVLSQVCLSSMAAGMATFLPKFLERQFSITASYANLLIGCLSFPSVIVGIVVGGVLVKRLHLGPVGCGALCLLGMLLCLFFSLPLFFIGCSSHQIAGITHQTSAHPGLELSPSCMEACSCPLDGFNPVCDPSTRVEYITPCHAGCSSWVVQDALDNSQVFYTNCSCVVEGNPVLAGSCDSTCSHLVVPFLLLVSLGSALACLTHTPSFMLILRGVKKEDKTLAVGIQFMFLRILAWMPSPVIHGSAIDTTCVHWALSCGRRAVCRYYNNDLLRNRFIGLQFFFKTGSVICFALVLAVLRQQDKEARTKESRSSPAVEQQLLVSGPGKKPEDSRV
In words: Cascade Blue uptake assay of OATP2B1 transport activity. The format is cell-based. Here is the method: CascadeBlue assay.S1 A431 cells ([…] in 200 μl) overexpressing human OATP2B1 or transfected with the vector control were seeded on 96 well plates 16 hours prior to the transport measurement. Transport reaction was performed as described in.S1 Briefly, after washing the cells 3-times with 200 µl 1 × phosphate buffered saline (PBS) the cells were preincubated with test compounds in final concentrations from 0.03 to 50 µM or dimethyl sulfoxide (used as a solvent for the test compounds and serving as non-treated control) for 5 minutes at 37 °C. The reaction was started with the addition of 50 µl Cascade Blue (resulting in final concentration of 10 µM) and the cells were further incubated at 37 °C for 30 minutes.
The reaction was stopped by the addition of 200 µl ice-cold 1 × PBS, and after 3 washing steps the fluorescence remaining in the cells was determined by Enspire fluorescent plate reader (Perkin Elmer) at 400 nm excitation and 419 nm emission wavelengths. Transport activity was determined by subtracting fluorescence in mock transfected cells. Kinetics of inhibition was determined by Hill fit using the Origin 8.6 software. […]

Data set [2] addresses T2, 17β-hydroxysteroid dehydrogenase type 1 (17β-HSD1) (Homo sapiens, UniProt P14061).
T2 construct: from tissue; host or cells: human term placenta, cytosol
T2 sequence (P14061 1-328): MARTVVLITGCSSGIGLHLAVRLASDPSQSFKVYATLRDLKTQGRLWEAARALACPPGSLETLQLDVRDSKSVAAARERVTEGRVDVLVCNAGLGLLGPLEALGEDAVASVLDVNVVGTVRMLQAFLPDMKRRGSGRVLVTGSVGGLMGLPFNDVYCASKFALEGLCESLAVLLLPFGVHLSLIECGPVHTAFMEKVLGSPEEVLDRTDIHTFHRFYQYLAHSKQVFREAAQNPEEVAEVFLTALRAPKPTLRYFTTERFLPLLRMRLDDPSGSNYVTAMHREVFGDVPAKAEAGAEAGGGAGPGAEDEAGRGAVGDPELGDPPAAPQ
The experiment in a line: 17β-HSD1 in vitro radiosubstrate incubation (estrone to 17β-estradiol conversion). The format is biochemical. To be noted: for remaining activity at 10 µM: read-out: 17β-HSD1 rel. conv. ± SD. How it is done:
(§1) The ability of the synthesized compounds 8–13 to inhibit activity of steroid sulfatase (STS) and 17β-hydroxysteroid dehydrogenase type 1 (17β-HSD1) was examined. In vitro radiosubstrate incubations were performed with adapted literature methodsS2–4 and human placenta served as source of the enzymes. Radiolabelled steroids were obtained from American Radiolabeled Chemicals (St. Louis, MO, USA). Other chemicals and solvents of analytical grade purity were purchased from Sigma (St. Louis, MO, USA), from Fluka (Buchs, Switzerland) or from Merck (Darmstadt, Germany).
(§2) 3.2. Preparation of enzyme sources
(§3) Human term placentae were collected immediately after delivery and stored frozen at −80 °C.
(§4) Tissue specimens were homogenized with an Ultra-Turrax in 0.1 M HEPES buffer solution […]
(§5) (pH 7.3) containing 1 mM EDTA and 1 mM dithiotreitol, and cytosol and microsomas were obtained with fractionated centrifugation. Application of the human tissue was approved by the institutional Human Investigation Review Board.
(§6) 3.3. Incubation procedures
(§7) Enzymatic incubations were carried out in the HEPES buffer medium at a final volume of 200
(§8) µl. The substrate was added to the incubate in 20 μl of a 25 % v/v propylene glycol in HEPES buffer solution, whereas test compounds were applied in 10 μl of dimethyl sulfoxide solution.
Incubations were performed at 37 °C and terminated by cooling and the addition of organic solvents of the subsequent extraction procedure. Control samples with no inhibitor and blank samples were incubated simultaneously. […]
In the 17β-HSD1 assays the cytosol was incubated using estrone (E1) substrate with [6,7-3H]estrone tracer and 0.1 mM NADPH cofactor excess. The incubation time was 2.5 min. The product 17β-estradiol (E2) was extracted with ethyl acetate and isolated by a TLC method.S5 […]
(§9) In the general procedure, incubations were performed as described. Concentrations of the substrates were 1.0 μM, and the test compounds were applied at 10 μM final concentration in the incubate. Relative conversions compared to non-inhibited controls (100%) were determined. The assays were performed in triplicate, and the mean value and the standard deviation (SD) were calculated.
(§10) In these cases, conversions were measured at 10–15 different concentrations in the appropriate interval between 0.001–50 μM. IC50 results were calculated by using unweighted iterative least squares logistic curve fitting by means of the “absolute IC50 calculation“ function of the GraphPad Prism 4.0 software (GraphPad Software, Inc., San Diego, CA, USA).

Data set [3] has as its target T3, human placental steroid sulfatase (STS) (Homo sapiens, UniProt P08842).
T3 construct: from tissue; host or cells: human term placenta, microsomes
T3 sequence (P08842 22-583): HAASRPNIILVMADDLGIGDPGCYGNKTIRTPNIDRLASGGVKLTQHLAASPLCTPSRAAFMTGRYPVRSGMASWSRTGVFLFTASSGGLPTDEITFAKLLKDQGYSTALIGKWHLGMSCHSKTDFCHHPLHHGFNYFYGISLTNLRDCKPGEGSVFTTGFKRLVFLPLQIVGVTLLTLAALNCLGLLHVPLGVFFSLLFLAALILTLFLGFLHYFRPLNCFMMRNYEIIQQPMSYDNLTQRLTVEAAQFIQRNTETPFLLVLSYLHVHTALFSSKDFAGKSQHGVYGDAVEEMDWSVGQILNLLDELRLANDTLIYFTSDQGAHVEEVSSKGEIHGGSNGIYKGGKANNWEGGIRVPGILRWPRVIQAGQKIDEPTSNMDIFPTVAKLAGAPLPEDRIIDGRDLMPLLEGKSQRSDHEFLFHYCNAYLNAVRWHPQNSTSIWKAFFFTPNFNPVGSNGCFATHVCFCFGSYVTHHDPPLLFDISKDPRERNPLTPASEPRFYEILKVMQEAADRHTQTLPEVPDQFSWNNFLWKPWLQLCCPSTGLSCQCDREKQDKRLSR
In words: STS in vitro radiosubstrate incubation (estrone-3-sulfate to estrone conversion). The format is biochemical. The conditions noted are these: relative conversion vs non-inhibited control (100%); test compound 10 μM; substrate E1S 1.0 μM; placental microsomes; n = 3; read-out: STS rel. conv. ± SD. How it is done: as §1, §2, §3, §4, §5, §6, §7, §8
Incubations were performed at 37 °C and terminated by cooling and the addition of organic solvents of the subsequent extraction procedure. Control samples with no inhibitor and blank samples were incubated simultaneously. The radioactivity of the products formed was measured by means of liquid scintillation counting (LSC) and taken as indicator of the […]
STS assays were performed using microsoma suspension and estrone-3-sulfate (E1S) substrate with [6,7-3H]estrone-3-sulfate tracer with incubations lasting for 20 min. Reactions were terminated by the addition of equal volume of methanol, and the product estrone (E1) was extracted with toluene.S4 […]
as §9, §10

Setting [4] is: A431 cells overexpressing human OATP2B1, Cascade Blue 10 μM, 30 min, 37 °C, read-out: OATP2B1 IC50 ± SD.

Where two headings read alike, the source gives them in different places. Some results are limits rather than exact numbers.

On to `COc1ccc2c(c1)CC[C@@H]1[C@@H]2CC[C@@]2(C)C(=O)CC[C@@H]12` [13αE1OMe, reference compound], for which the IC50 (in general, the concentration at which inhibition is half-maximal) in data set [1] (setting [4]) is 3400 ± 300 nM.

With `C[C@@]12CC[C@@H]3c4cc(P(=O)(c5ccccc5)c5ccccc5)c(O)cc4CC[C@H]3[C@@H]1CCC2=O` [9b, (3-hydroxy-13α-estra-1,3,5(10)-trien-17-on-2-yl)diphenylphosphine oxide], the half-inhibitory concentration (IC50) came out at 2600 ± 200 nM in data set [1] and 180 ± 60 nM in data set [2] (human placental cytosol, estrone 1.0 μM, 0.1 mM NADPH, read-out: 17β-HSD1 IC50 ± SD). Besides, in data set [3], the remaining activity at 10 µM was found to be 77 ± 10%.

Compound `CCOP(=O)(OCC)c1cc2c(cc1OCc1ccccc1)CC[C@@H]1[C@@H]2CC[C@@]2(C)C(=O)CC[C@@H]12` [10a, diethyl (3-benzyloxy-13α-estra-1,3,5(10)-trien-17-on-2-yl)phosphonate] showed an IC50 in data set [1] of 200 ± 20 nM. In addition, the remaining activity at 10 µM in data set [2] stood at 64 ± 3%; in data set [3], 85 ± 7%.

`C[C@@]12CC[C@@H]3c4ccc(O)c(P(=O)(c5ccccc5)c5ccccc5)c4CC[C@H]3[C@@H]1CCC2=O` [12b, (3-hydroxy-13α-estra-1,3,5(10)-trien-17-on-4-yl)diphenylphosphine oxide]: the IC50 in data set [1] is more than 50000 nM. Besides, the remaining activity at 10 µM came out at 100 ± 5% in data set [2] and 93 ± 4% in data set [3].

Turning to `CCOP(=O)(OCC)c1cc2c(cc1OC)CC[C@@H]1[C@@H]2CC[C@@]2(C)C(=O)CC[C@@H]12` [8a, diethyl (3-methoxy-13α-estra-1,3,5(10)-trien-17-on-2-yl)phosphonate], the IC50 in data set [1] was determined as 1800 ± 300 nM. Besides, the remaining activity at 10 µM in data set [2] is 60 ± 3%; in data set [3], 84 ± 4%.

Take `COc1ccc2c(c1P(=O)(c1ccccc1)c1ccccc1)CC[C@@H]1[C@@H]2CC[C@@]2(C)C(=O)CC[C@@H]12` [11b, (3-methoxy-13α-estra-1,3,5(10)-trien-17-on-4-yl)diphenylphosphine oxide]: it took 2500 ± 400 nM to reach half-maximal inhibition in data set [1] (IC50). Moreover, the remaining activity at 10 µM in data set [2] worked out at 106 ± 8%; in data set [3], 80 ± 5%.

`CCOP(=O)(OCC)c1c(OCc2ccccc2)ccc2c1CC[C@@H]1[C@@H]2CC[C@@]2(C)C(=O)CC[C@@H]12` [13a, diethyl (3-benzyloxy-13α-estra-1,3,5(10)-trien-17-on-4-yl)phosphonate] had an IC50 in data set [1] of 300 ± 20 nM. Also, the remaining activity at 10 µM in data set [2] came to 92 ± 3%; in data set [3] it was 87 ± 5%.

Take `CCOP(=O)(OCC)c1cc2c(cc1O)CC[C@@H]1[C@@H]2CC[C@@]2(C)C(=O)CC[C@@H]12` [9a, diethyl (3-hydroxy-13α-estra-1,3,5(10)-trien-17-on-2-yl)phosphonate]: the figures for the IC50 in data set [1] and in data set [2] were 2100 ± 200 nM and 1500 ± 300 nM, respectively. Besides, the remaining activity at 10 µM in data set [3] came to 97 ± 5%.

For the compound `C[C@@]12CC[C@@H]3c4ccc(OCc5ccccc5)cc4CC[C@H]3[C@@H]1CCC2=O` [13αE1OBn, reference compound], the IC50 in data set [1] (setting [4]) is 1700 ± 900 nM.

In turn, `C[C@@]12CC[C@@H]3c4ccc(OCc5ccccc5)c(P(=O)(c5ccccc5)c5ccccc5)c4CC[C@H]3[C@@H]1CCC2=O` [13b, (3-benzyloxy-13α-estra-1,3,5(10)-trien-17-on-4-yl)diphenylphosphine oxide] yielded a half-maximal inhibitory concentration (IC50) in data set [1] of 300 ± 20 nM. Besides, the remaining activity at 10 µM in data set [2] amounted to 75 ± 2%; in data set [3], 105 ± 7%.

Take `C[C@@]12CC[C@@H]3c4cc(P(=O)(c5ccccc5)c5ccccc5)c(OCc5ccccc5)cc4CC[C@H]3[C@@H]1CCC2=O` [10b, (3-benzyloxy-13α-estra-1,3,5(10)-trien-17-on-2-yl)diphenylphosphine oxide]: inhibition in data set [1] was half-maximal at 1000 ± 100 nM (IC50). For the same compound, the remaining activity at 10 µM in data set [2] amounted to 73 ± 3%; in data set [3] it was 85 ± 5%.

Regarding `CCOP(=O)(OCC)c1c(OC)ccc2c1CC[C@@H]1[C@@H]2CC[C@@]2(C)C(=O)CC[C@@H]12` [11a, diethyl (3-methoxy-13α-estra-1,3,5(10)-trien-17-on-4-yl)phosphonate], the concentration for half-maximal inhibition (IC50) in data set [1] came to 2800 ± 1500 nM. Moreover, the remaining activity at 10 µM in data set [2] worked out at 100 ± 5%; in data set [3], 93 ± 7%.

For `CCOP(=O)(OCC)c1c(O)ccc2c1CC[C@@H]1[C@@H]2CC[C@@]2(C)C(=O)CC[C@@H]12` [12a, diethyl (3-hydroxy-13α-estra-1,3,5(10)-trien-17-on-4-yl)phosphonate], it took 1400 ± 100 nM to reach half-maximal inhibition in data set [1] (IC50). Moreover, the remaining activity at 10 µM in data set [2] was 84 ± 4%; in data set [3], 93 ± 6%.

As to `COc1cc2c(cc1P(=O)(c1ccccc1)c1ccccc1)[C@H]1CC[C@@]3(C)C(=O)CC[C@H]3[C@@H]1CC2` [8b, (3-methoxy-13α-estra-1,3,5(10)-trien-17-on-2-yl)diphenylphosphine oxide], the 50% inhibitory concentration (IC50) amounted to 1200 ± 100 nM in data set [1] and 4100 ± 1100 nM in data set [2]. For the same compound, the remaining activity at 10 µM in data set [3] was 80 ± 8%.
